In patent publication US20110098351A1, “Lactone compounds which can be used as antioxidant agents in pharmaceutical, cosmetic or food compositions and their method of preparation” (COMMISSISSARIAT A L'ENERGIE ATOMIQUE, priority 2002, published 2011):

Legend:
rat aorta rings [1] = experiment: Contraction of rat aorta rings induced by pyrogallol (superoxide radicals); conditions: dipotassium salt form, 100 μM; FIG. 8
Method: (§1) The objective of this example is to show the antioxidant activity of norbadione in the dipotassium salt form on rat aorta rings.
During a first series of tests, rat aorta rings are subjected, in a first instance, to pyrogallol, which generates superoxide radicals, these radicals inducing contraction of the rat aorta rings and the rate of contraction of these rings is measured in the absence of norbadione.
In a second instance, the same operations are repeated, under the same conditions as those mentioned above, this time in the presence of norbadione.
The results are grouped together in FIG. 8, which represents the rate of vascular contraction of the rings C(g) as a function of the concentration of pyrrogallol [Pyr] (μM), in the absence of norbadione (curve a) and in the presence of norbadione at the concentration of 100 μM (curve b).

rat aorta rings [2] = experiment: Relaxation of rat aorta rings induced by SYN-1 (3-morpholinosydnonimine, NO radicals); conditions: dipotassium salt form, 100 μM; FIG. 9
Method: as §1
During a second series of tests, rat aorta rings are subjected to SYN-1 (3-morpholinosydnonimine), which generates NO radicals, inducing relaxation of the rat aorta rings, and the rate of relaxation of these rings is measured. In the presence of norbadione, the rate of relaxation of the rings is measured under the same conditions as those mentioned above. The results are presented in FIG. 9, which represents the rate of vascular relaxation of the rings R(%) as a function of the Sin−1 concentration [Sin−1] (μM), in the absence of norbadione (curve a) and in the presence of norbadione (100 μM) (curve b).

thymidine [3] = experiment: Thymidine degradation test, ultraviolet irradiation at 254 nm with H2O2, competition ELISA of remaining thymidine; type: biochemical; conditions: dipotassium salt (Nor-B); UV 254 nm (1.75 J/cm^2), 5 mM H2O2; thymidine 70 μM, antioxidant 100 μM; FIG. 2; compared with conventional antioxidants (1)-(6)
Method: (§2) The evaluation of the antioxidant activity of the dipotassium salt of norbadione was carried out by a screening test in vitro.
(§3) This test is based on the monitoring of the degradation of thymidine subjected to various oxidant stresses in the presence of various antioxidant agents, which are norbadione in dipotassium salt form (called Nor-B in FIGS. 1 to 3) in accordance with the invention, and the following antioxidant agents: quercitin (1), fisetin (2), myricetin (3), catechin (4), 7-hydroxy-4-methyl-8-nitrocoumarin (5), Trolox (6) in FIGS. 1 to 3.
(§4) In the presence of an antioxidant, thymidine is protected more or less effectively according to the nature of the said antioxidant. The efficacy of the antioxidant is quantified by assaying the remaining thymidine (quantified as % on the y-axis of the graph) with the aid of an immunoenzymatic assay of the so-called “competition” ELISA type. This ELISA assay consists in producing competition, for binding to a thymidine-specific monoclonal antibody attached to a solid phase, between the thymidine remaining at the end of test and the thymidine labelled with an enzyme (acetylcholine esterase). After washing, the bound enzyme is quantified by colorimetric detection with the aid of 5,5′-dithiobis(2-nitrobenzoic acid) (termed Ellmann's reagent) and in the presence of […]. […]

thymidine [4] = experiment: Thymidine degradation test, gamma irradiation (caesium 137), competition ELISA of remaining thymidine; type: biochemical; conditions: dipotassium salt (Nor-B); gamma irradiation 3 h 30 min, 137Cs; thymidine 15 μM, antioxidant 12 μM; FIG. 1; compared with quercetin, fisetin, myricetin, catechin, 7-hydroxy-4-methyl-8-nitrocoumarin, Trolox
Method: as §2, §3, §4

[5] = tested on: RDM4 cell cultures (AKR mouse lymphomas); experiment: Protection of RDM4 cells subjected to ionizing radiation, Uptiblue test; type: cell-based; conditions: for number of living cells after irradiation (Uptiblue fluorescence, A.F.U.): 0.12 to 20 μg/ml added two hours before X rays 15 MV, 8 Gy, sixth day, FIG. 6
Method: This test consists in measuring, in the presence or in the absence of norbadione in diacid or dipotassium salt form, the rate of survival of cells treated with ionizing radiation, with the aid of selective indicators for certain cellular organelles such as mitochondria.
Samples of norbadione in diacid or dipotassium salt form are added to RDM4 cell cultures (AKR mouse lymphomas) in increasing concentrations (from 0.12 to 20 μg/ml), two hours before irradiation. This is carried out by exposing microtest plates containing the cells to X rays of 15 MV, at 8 Gy, the culture medium being unchanged.
The number of living cells is determined on the sixth day by means of the Uptiblue test (which consists in measuring the micochondrial activity of the cells). The Uptiblue reagent (reazurin, also marketed under the ALAMAR BLUE trade mark) is a coloured oxidation-reduction indicator. The reazurin (blue and nonfluorescent) is reduced to resorufin (pink and fluorescent) by living cells.
Experimentally, the Uptiblue (diluted ¼ in the culture medium) is added to the cells in an amount of 20 μl per 200 μl well. After incubating for 4 hours at 37° C., the fluorescence is measured at a wavelength of 590 nm, after excitation at a wavelength of 530 nm with the aid of a fluorescence microplate reader (Fluorolite 1000, Dynex). The fluorescence intensity is proportional to the number of living cells. It is expressed as “arbitrary fluorescence unit”. This value depends on the setting of the apparatus (in particular the voltage) and the background noise (due to the fluorescence emitted by wells not containing cells, but containing Uptiblue). The latter value is subtracted from the experimental values.
The results of this test are grouped together in FIG. 6, which represents the fluorescence observed which makes it possible to quantify the number of living cells, the said fluorescence being expressed as arbitrary fluorescence units on the y-axis of the graph (A.F.U) as a function of the concentration of norbadione in the diacid or dipotassium salt form, noted [Nor-A] or [Nor-B] (in μg/ml).

thymidine [6] = experiment: Thymidine degradation test, chemical oxidant stress (Fenton's reagent), competition ELISA of remaining thymidine; type: biochemical; conditions: dipotassium salt (Nor-B); Fenton's reagent 0.35 mM FeSO4/EDTA, 35 mM H2O2; thymidine 70 μM, antioxidant 20 μM; FIG. 3; compared with conventional antioxidants (1)-(6)
Method: as §2, §3, §4

[7] = tested on: Human thyroid carcinoma K1 cells; experiment: Protection of K1 cells against cisplatin, sulphorhodamine B test; type: cell-based; conditions: norbadione 20 μg/ml added two hours before cisplatin 12 to 100 μM, two days, FIG. 7
Method: This test consists in measuring, in the presence of norbadione in the diacid or dipotassium salt form, the rate of survival of cells treated with cisplatin.
Human thyroid carcinoma K1 cells are cultured in flat-bottomed 96-well microtest plates in the presence of a single concentration (20 μg/ml) of norbadione in the diacid or dipotassium salt form. After two hours, a genotoxic agent, cisplatin, is added to the culture medium in increasing concentrations (from 12 to 100 μm). Two days later, the number of cells is determined by means of the sulphorhodamine B (termed SRB) test, which measures the quantity of cellular proteins.
Sulphorhodamine B (termed SRB) is an anionic dye which binds electrostatically to cellular proteins. This test is frequently used for the evaluation of the cytotoxic and cytostatic activities of novel antitumour drugs.
Further information relating to this technique is available in the article by Papazisis et al. “Optimization of the sulforhodamine B colorimetric assay”, J. Immunol. Meth, 208, pages 151-158, 1997 [8].
The results of this test are grouped together in FIG. 7, which represents the fluorescence observed after addition of SRB (expressed as arbitrary fluorescence units) as a function of the cisplatin concentration (in μM).

IL-10 = IL-10 production by lipopolysaccharide-activated human PBMC, cytometric sandwich ELISA; type: cell-based; conditions: 10^-8 M to 10^-5 M, Salmonella abortus equi lipopolysaccharide 5 μg/ml, 24 hours, FIGS. 4 and 5
Method: (§5) This liposaccharide is an endotoxin located on the outer membrane of Gram-negative bacteria. In particular, it stimulates the production of proinflammatory cytokines by the mononuclear cells (monocytes, microphages) of the infected host.
(§6) This test is carried out in the following manner. […]
(§7) More specifically, the detection of the cytokines present in the samples is measured with the aid of a “sandwich” type cytometric ELISA assay. Microparticles (beads) of polystyrene (of 6 different types, each being labelled with a different quantity of fluorescent dye whose FL-3 emission wavelength is about 650 nm) are coupled to an antibody specific for one of the […] TNFα, IL-2, IL-10. […] The cytokines captured are detected with the aid of a directly performed immunological test which uses 2 antibodies specific for each cytokine, coupled to phycoerythrin which emits at an FL-2 wavelength of about 585 nm (Ab-PE). After washing the excess Ab-PE, the presence of the cytokines is measured by flow cytometry.
(§8) The fluorescence is measured based on the 6 FL-3 fluorescence intensities and based on the FL-2 wavelength. The intensity of the […] fluorescence makes it possible to determine the quantity of each cytokine present in the sample (in comparison with standard curves). […]

TNF-α = TNF-α production by lipopolysaccharide-activated human PBMC, cytometric sandwich ELISA; type: cell-based; conditions: 10^-8 M to 10^-5 M, Salmonella abortus equi lipopolysaccharide 5 μg/ml, 24 hours, FIGS. 4 and 5
Method: as §5, §6, §7, §8

Row | Compound | contraction of the aorta rings caused by pyrogallol (rat aorta rings [1]) | relaxation of the aorta rings caused by SYN-1 (rat aorta rings [2]) | antioxidant power (percentage of thymidine remaining after oxidant stress) (thymidine [3]) | antioxidant power (percentage of thymidine remaining after oxidant stress) (thymidine [4]) | number of living cells after irradiation (Uptiblue fluorescence) at the highest concentration ([5]; RDM4 cells, X rays 8 Gy, from a norbadione concentration of 20 μg/ml) | effect on the growth and the viability of the RDM4 cells ([5]; without irradiation, even at 20 μg/ml) | antioxidant power (percentage of thymidine remaining after oxidant stress) (thymidine [6]) | cytotoxicity of cisplatin in the presence of norbadione (SRB test) [7] | production of the cytokine IL-10 (percentage response relative to control) (IL-10) | production of the cytokine TNF-α (percentage response relative to control) (TNF-α) | number of living cells after irradiation (Uptiblue fluorescence, A.F.U.) ([5]; RDM4 cells) | number of living cells after irradiation (Uptiblue fluorescence, A.F.U.) ([5]; RDM4 cells, listed as norbadione diacid form) | number of living cells after irradiation (Uptiblue fluorescence, A.F.U.) ([5]; RDM4 cells, listed as norbadione disalt form)
1 | norbadione | suppressed | reduced | best antioxidant power | best antioxidant power | decreases considerably | without effect | best antioxidant power | – | – | – | – | – | –
2 | O=C1O/C(=C(/C(=O)O)c2ccc(O)cc2)C(O)=C1c1cc2c3c(c(O)cc(C4=C(O)/C(=C(\C(=O)O)c5ccc(O)cc5)OC4=O)c3c1)OC2=O [Nor-A, norbadione] | – | – | – | – | – | – | – | very markedly attenuated | significant dose-dependent reduction | significant dose-dependent reduction | large increase | protects the cells against ionizing radiation in a significant and dose-dependent manner | –
3 | O=C1O/C(=C(/C(=O)[O-])c2ccc(O)cc2)C(O)=C1c1cc2c3c(c(O)cc(C4=C(O)/C(=C(\C(=O)[O-])c5ccc(O)cc5)OC4=O)c3c1)OC2=O.[K+].[K+] [Nor-B, norbadione] | – | – | – | – | – | – | – | very markedly attenuated | significant dose-dependent reduction | significant dose-dependent reduction | large increase | – | protects the cells against ionizing radiation in a significant and dose-dependent manner
